This passage reports EC50, CC50 and IC50 results from ChEMBL document CHEMBL1201862, “PubChem BioAssay data set” (2004).

The EC50 is the concentration giving half of the maximal effect. In general, CC50 refers to the concentration at which the toxic effect on the cells reaches its halfway point. A word on the IC50: it is the concentration that inhibits the measured activity by half.

Each structure is given as a SMILES string. Where “and” joins values, the source holds several entries; their conditions need not be identical. Equal values may be shown once. Calls of active or inactive are those of the source.

Test [1] in a line: cytotoxicity in KRAS-transformed pancreatic duct cells, primary screen, cell-based, fluorescence, HTS (AID 431).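 Note: cell line used: HPDE-C7K.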 The test is classed as functional. The following applies: Homo sapiens.
The nature of test [2]: HEp-2 cell cytotoxicity, dose response, cytotoxicity control for RSV inhibitor project, HTS (AID 2410). Type of test: functional. To be noted: human respiratory syncytial virus.
A short description of test [3]: cytotoxicity in HPDE-C7 cells, cell-based, fluorescence, HTS (AID 430). The following applies: Homo sapiens. Type of test: functional.
Test [4] concerns the target Neuropeptide Y receptor type 1 (Homo sapiens, UniProt P25929). Type of test: functional.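 Note: HEK293 cells with a CNG channel challenged with NPY then isoproterenol; potency as antagonist that reverses NPY suppression of cAMP signal.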
The target of test [5] is Neuropeptide Y receptor type 2 (Homo sapiens, UniProt P49146). The test is classed as functional, cell-based.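 Note: HEK293 cells expressing the receptor and a CNG channel; stimulus was NPY near EC95 followed by isoproterenol to raise cAMP; antagonist potency measured as restoring cAMP signal that NPY suppresses.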
In test [6] the target is Epstein-Barr nuclear antigen 1 (Epstein-Barr virus (strain B95-8) (HHV-4) (Human herpesvirus 4), UniProt P03211). Put plainly: EBNA-1 inhibitors, dose response, biochemical, fluorescence polarization, 1536-well (AID 2381).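 Note: fluorescence polarization of a Cy5 DNA probe bound by EBNA-1 protein.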 More on the design: species or system human gammaherpesvirus 4. On the technique in general: Polarisation of emitted light reports the rotation of a fluorescent probe.

Test [7] addresses Lytic switch protein BZLF1 (Epstein-Barr virus (strain B95-8) (HHV-4) (Human herpesvirus 4), UniProt P03206). Put plainly: EBV ZTA inhibitors, dose response, counter-screen for EBNA-1 inhibitor project, biochemical, fluorescence polarization, Epstein-Barr virus, 1536-well (AID 2377).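 Note: fluorescence polarization of Cy5-labelled ZRE DNA probe bound by purified Zta.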 More on the design: species or system human gammaherpesvirus 4. In general terms: Counterscreens check selectivity or assay interference.

Test [8] can be described thus: Luminescence Cell-Based Dose Confirmation HTS to Identify Inhibitors of Polyadenylation. Type of test: functional.
Test [9] concerns the target Sphingosine 1-phosphate receptor 2 (Homo sapiens, UniProt O95136). Nature of the test: Dose Response Cell Based Assay for Agonists of the S1P2 Receptor of Purchased Analogues. [Related pubchem assays: 729, 843, 854, 736 ]. Type of test: functional.
The subject of test [10] is Vero. Nature of the test: cells. Type of test: functional. To be noted: Chlorocebus sabaeus.
In test [11] the test system is Vero. Put plainly: West Nile virus antiviral activity, cell-based, CPE readout (AID 1621). Type of test: functional. To be noted: Chlorocebus sabaeus.
Test [12] concerns the target T1, Bcl-2-related protein A1 (Mus musculus, UniProt Q07440).
T1 sequence (Q07440 whole entry): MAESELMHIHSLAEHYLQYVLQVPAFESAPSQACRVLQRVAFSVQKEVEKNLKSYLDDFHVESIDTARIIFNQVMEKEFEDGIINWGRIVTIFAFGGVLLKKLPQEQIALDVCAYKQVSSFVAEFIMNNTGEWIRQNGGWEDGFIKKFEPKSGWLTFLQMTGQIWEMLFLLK
Put plainly: Bfl-1 inhibitors blocking BH3 peptide binding, confirmation, biochemical, TR-FRET, mouse Bfl-1 (AID 621).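 Note: TR-FRET binding of GST-Bfl-1 to FITC-labelled Bid peptide via terbium antibody.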

In test [13] the target is Glyceraldehyde-3-phosphate dehydrogenase (Homo sapiens, UniProt P04406).
Test [14] deals with T1, Bcl-2-related protein A1. Nature of the test: Bfl-1 binding inhibitors, SAR follow-up, biochemical, fluorescence polarization (AID 1070).
Test [15] concerns the target T2, Tyrosine-protein phosphatase non-receptor type 7 (Homo sapiens, UniProt P35236).
T2 sequence (P35236 whole entry): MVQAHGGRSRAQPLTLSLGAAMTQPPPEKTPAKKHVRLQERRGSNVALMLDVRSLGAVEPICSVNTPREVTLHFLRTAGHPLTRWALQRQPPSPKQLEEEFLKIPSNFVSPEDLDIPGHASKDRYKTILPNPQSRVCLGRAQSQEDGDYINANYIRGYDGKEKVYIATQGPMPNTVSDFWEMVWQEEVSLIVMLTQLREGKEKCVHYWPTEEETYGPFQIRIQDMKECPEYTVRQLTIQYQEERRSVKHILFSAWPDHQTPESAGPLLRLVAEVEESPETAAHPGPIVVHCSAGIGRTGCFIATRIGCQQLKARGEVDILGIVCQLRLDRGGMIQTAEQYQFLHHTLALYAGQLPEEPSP
Nature of the test: inhibitors of human HePTP phosphatase, […], biochemical, absorbance, leukemia target (AID 521). The test is classed as functional.

In test [16] the target is T1, Bcl-2-related protein A1. Put plainly: Bfl-1 inhibitors, primary screen, biochemical, fluorescence polarization, FITC-Bid, mouse (AID 432).
In test [17] the target is Induced myeloid leukemia cell differentiation protein Mcl-1 (Homo sapiens, UniProt Q07820). Nature of the test: MCL1-BIM BH3 interaction inhibitors, dose response, biochemical, fluorescence polarization, BIM-BH3 peptide, 1536-well (AID 2217).
Test [18] has as its target T3, SUMO-activating enzyme (Homo sapiens, UniProt Q9UBT2). Put plainly: SUMOylation inhibitor hit validation, confirmation, SUMOylation inhibitor project, biochemical, AlphaScreen (AID 2018). The test is classed as functional. (Bead proximity is the source of the signal in Alpha formats.)
For a further test, the target named is T4, Bcl-2-like protein 10 (Homo sapiens, UniProt Q9HD36).
T4 sequence (Q9HD36 whole entry): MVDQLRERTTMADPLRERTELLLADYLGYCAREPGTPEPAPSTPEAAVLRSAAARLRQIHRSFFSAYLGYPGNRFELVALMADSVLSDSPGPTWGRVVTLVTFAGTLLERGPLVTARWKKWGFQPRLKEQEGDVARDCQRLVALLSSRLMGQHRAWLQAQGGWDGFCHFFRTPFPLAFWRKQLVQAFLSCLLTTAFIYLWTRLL
Put plainly: displacers of TR3 peptide from Bcl-B, primary screen, selectivity assay for Bfl-1 inhibitor project, biochemical, fluorescence polarization, FITC-TR3 peptide (AID 748).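 Note: fluorescence polarization from a fluorescein-labelled TR3 peptide binding purified Bcl-B.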

The target of test [19] is T3, SUMO-activating enzyme. Nature of the test: inhibitors of in vitro SUMOylation cascade, primary screen, biochemical, HTRF, uHTS (AID 2006). The test is classed as protein-complex assay.
Test [20] concerns the target T5, Estrogen receptor beta (Homo sapiens, UniProt Q92731). Nature of the test: ERβ–SRC-3 coactivator interaction inhibitors, confirmation, orthogonal assay, biochemical, ELISA, streptavidin-HRP readout (AID 1060).
The next test has as its target Bcl-2-like protein 1 (Homo sapiens, UniProt Q07817). Put plainly: BCL-XL inhibitors, dose response, selectivity assay for MCL1 inhibitor project, biochemical, fluorescence polarization, 1536-well (AID 2218).
Test [21] concerns the target T5, Estrogen receptor beta.

T3 sequence (Q9UBE0 whole entry): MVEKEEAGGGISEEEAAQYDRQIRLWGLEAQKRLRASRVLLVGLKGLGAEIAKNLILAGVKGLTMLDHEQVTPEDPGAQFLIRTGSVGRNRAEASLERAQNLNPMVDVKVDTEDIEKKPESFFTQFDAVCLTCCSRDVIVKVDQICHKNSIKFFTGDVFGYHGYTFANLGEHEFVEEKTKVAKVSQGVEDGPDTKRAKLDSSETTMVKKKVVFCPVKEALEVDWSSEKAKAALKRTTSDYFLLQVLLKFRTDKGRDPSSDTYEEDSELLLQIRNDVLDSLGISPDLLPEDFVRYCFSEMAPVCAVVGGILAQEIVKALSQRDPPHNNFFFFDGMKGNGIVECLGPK
T3 sequence (Q9UBT2 whole entry): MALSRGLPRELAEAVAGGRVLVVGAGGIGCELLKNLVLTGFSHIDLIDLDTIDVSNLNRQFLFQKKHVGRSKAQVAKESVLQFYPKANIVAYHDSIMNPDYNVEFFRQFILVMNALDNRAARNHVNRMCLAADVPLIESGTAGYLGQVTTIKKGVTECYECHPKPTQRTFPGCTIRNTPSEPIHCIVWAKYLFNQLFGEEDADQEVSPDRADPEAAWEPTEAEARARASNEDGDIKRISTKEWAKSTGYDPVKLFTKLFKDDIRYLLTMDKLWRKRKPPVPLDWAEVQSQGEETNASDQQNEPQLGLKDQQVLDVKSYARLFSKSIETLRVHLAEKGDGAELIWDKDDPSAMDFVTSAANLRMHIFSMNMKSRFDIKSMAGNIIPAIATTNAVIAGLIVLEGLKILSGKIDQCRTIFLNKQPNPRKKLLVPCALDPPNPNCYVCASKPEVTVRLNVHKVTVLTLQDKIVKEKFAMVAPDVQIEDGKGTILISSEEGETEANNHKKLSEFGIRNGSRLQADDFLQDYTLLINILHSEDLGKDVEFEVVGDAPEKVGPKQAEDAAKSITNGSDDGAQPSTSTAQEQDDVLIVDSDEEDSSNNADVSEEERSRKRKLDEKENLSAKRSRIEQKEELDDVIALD
T5 sequence (Q92731 whole entry): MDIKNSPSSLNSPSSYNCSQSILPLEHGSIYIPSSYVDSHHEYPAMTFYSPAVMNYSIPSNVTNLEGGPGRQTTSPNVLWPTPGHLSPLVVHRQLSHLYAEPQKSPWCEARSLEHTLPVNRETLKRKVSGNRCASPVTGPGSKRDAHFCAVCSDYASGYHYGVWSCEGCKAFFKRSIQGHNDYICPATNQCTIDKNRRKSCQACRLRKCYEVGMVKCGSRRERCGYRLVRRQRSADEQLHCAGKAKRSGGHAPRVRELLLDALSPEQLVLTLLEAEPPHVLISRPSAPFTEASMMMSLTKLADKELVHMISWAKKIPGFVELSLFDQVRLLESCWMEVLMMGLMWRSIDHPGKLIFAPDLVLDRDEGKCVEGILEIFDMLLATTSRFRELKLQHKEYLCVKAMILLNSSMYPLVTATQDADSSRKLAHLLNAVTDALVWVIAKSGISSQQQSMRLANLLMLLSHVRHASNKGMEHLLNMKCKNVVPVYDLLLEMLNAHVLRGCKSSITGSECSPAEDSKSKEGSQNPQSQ
Sequence of Lytic switch protein BZLF1 (P03206 whole entry): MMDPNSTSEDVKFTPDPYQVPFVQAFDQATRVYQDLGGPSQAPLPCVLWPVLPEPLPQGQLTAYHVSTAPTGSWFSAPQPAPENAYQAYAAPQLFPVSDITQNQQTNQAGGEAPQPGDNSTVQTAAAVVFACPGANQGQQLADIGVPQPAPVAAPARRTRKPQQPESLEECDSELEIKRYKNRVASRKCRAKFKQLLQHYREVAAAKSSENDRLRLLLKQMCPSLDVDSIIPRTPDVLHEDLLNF
Sequence of Sphingosine 1-phosphate receptor 2 (O95136 whole entry): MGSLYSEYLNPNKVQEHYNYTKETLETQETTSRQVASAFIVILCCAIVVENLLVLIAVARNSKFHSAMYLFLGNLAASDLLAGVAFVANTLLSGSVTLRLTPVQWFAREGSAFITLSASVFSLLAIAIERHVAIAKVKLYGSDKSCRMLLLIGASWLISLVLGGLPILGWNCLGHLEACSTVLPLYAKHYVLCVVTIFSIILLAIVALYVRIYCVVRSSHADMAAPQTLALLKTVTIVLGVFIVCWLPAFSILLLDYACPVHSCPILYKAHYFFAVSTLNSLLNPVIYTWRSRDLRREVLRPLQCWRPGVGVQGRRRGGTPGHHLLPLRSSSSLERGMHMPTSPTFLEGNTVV
Sequence of Glyceraldehyde-3-phosphate dehydrogenase (P04406 whole entry): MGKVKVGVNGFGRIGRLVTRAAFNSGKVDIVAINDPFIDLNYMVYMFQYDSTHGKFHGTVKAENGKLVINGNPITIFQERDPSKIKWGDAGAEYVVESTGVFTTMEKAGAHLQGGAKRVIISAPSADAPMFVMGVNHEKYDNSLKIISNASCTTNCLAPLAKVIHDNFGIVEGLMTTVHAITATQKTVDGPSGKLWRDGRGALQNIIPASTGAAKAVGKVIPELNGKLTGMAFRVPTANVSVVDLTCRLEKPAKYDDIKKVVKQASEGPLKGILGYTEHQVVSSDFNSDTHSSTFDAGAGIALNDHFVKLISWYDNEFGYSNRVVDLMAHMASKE
Sequence of Epstein-Barr nuclear antigen 1 (P03211 whole entry): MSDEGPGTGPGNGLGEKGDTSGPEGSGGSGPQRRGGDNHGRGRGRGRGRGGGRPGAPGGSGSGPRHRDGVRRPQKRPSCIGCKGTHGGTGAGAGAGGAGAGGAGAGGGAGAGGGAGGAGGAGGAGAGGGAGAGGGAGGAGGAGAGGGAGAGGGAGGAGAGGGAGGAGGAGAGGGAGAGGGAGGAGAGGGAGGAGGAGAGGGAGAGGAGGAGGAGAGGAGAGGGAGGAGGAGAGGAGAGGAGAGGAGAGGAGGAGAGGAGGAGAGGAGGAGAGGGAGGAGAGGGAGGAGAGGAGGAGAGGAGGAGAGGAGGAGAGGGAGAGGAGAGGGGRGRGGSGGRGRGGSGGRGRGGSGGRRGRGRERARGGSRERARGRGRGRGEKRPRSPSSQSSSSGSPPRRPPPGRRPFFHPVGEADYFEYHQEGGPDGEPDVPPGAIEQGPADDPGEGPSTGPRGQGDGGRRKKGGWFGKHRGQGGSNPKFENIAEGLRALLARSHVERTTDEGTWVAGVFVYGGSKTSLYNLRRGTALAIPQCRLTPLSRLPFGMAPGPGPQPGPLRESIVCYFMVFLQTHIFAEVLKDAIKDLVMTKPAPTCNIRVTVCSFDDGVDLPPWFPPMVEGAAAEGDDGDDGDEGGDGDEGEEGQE
Sequence of Neuropeptide Y receptor type 2 (P49146 whole entry): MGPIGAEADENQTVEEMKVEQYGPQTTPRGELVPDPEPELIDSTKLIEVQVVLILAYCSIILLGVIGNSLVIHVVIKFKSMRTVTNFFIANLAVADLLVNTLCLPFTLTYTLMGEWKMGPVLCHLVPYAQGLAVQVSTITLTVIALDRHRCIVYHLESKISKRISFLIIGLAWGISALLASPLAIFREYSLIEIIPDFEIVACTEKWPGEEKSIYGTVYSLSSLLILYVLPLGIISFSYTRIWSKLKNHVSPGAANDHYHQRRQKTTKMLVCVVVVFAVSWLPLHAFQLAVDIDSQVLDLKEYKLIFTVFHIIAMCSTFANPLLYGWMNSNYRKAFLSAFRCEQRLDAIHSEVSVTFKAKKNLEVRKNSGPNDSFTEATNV
Sequence of Bcl-2-like protein 1 (Q07817 whole entry): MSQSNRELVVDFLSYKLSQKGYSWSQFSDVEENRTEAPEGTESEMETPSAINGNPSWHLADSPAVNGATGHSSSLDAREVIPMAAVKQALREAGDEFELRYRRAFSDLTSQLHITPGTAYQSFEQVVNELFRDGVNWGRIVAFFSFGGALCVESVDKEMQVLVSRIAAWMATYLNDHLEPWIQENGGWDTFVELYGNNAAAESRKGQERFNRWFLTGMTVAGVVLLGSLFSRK
Sequence of Induced myeloid leukemia cell differentiation protein Mcl-1 (Q07820 whole entry): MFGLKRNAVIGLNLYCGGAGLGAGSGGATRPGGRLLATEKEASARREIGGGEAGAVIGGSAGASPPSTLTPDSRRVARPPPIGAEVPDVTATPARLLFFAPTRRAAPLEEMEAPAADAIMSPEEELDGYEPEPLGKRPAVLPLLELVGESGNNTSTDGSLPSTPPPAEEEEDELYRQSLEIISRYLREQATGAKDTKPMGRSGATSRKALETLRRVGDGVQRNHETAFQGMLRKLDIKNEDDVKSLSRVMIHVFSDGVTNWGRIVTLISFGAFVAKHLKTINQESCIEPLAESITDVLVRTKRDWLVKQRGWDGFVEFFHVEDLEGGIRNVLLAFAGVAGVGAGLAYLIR
Sequence of Neuropeptide Y receptor type 1 (P25929 whole entry): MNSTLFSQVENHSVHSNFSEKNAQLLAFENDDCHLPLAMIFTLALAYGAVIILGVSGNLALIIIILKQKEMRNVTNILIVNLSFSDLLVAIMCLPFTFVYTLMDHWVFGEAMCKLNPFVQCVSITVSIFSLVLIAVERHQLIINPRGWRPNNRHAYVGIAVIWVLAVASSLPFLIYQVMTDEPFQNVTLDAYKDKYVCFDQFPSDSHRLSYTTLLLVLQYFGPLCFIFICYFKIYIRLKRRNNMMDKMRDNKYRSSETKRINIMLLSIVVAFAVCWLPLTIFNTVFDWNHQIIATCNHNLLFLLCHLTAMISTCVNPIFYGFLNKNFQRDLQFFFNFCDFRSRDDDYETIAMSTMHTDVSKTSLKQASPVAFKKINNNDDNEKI

Take `Cc1oc(C)c2c(=O)ccc3c(c12)OC(N)=C(C#N)C3c1ccc(F)cc1` (stereo not drawn): the EC50 in test [1] is 9.61 µM (active); in test [3], 10.3 µM (active). Besides, in test [2], the CC50 is 21.6 µM (active).

As to `CCc1cccc(CC)c1NC(=O)COC(=O)c1ccccc1-c1nc2ccccc2s1`, the IC50 in test [4] was 5.77 µM (active); in [5], 17.3 µM (not active).

As to `Nc1c(C(=O)Nc2ccc3c(c2)OCCO3)nnn1Cc1cccc(F)c1`, the IC50 in test [6] is given as 13.7 µM (not active); in [7] it was > 111 µM (not active).

Regarding `Cc1nc2ccc(C(=O)NCc3ccc4c(c3)OCO4)cc2s1`, the EC50 in test [8] is reported as > 120 µM (not active).

Take `Cc1cc(C(=O)CN2C(=O)NC3(CCc4ccccc43)C2=O)c(C)n1Cc1ccccc1` (stereo not drawn): the EC50 in test [9] is listed as > 30 µM (not active).

`CCCN1CCN(CCCNC(=O)c2cc3c(s2)-c2ccccc2OC3)CC1`: the CC50 in the test with Vero [10] is > 25 µM (active). In the test on Vero [11], the IC50 was 20 µM (active).

For `COc1ccc2nc(O)c(-c3noc(-c4ccc(F)cc4)n3)cc2c1`, the IC50 is 4.45 µM (active) and 3.6 µM (active) on Bcl-2-related protein A1 [12]; > 100 µM (not active) in test [13]; 3.85 µM (active) on Bcl-2-related protein A1 [14]; 2.18 µM (active) in [15]; 6.15 µM (active) at Bcl-2-related protein A1 [16].

As to `O=c1nc2s/c(=C\c3ccco3)c(=O)n2nc1Cc1ccc(F)cc1`, the IC50 is > 109 µM (not active) in test [17]; 7.36 µM (active) on SUMO-activating enzyme [18]; 14.7 µM (active) on Bcl-2-like protein 10; 38.3 µM (active) at SUMO-activating enzyme [19]; 0.987 µM (not active) at Estrogen receptor beta [20]; > 109 µM (not active) against Bcl-2-like protein 1. In addition, on Estrogen receptor beta [21], the IC50 was 2.35 µM (active).
